In brackets after ≈: the same amount, converted by molar mass. Like-named read-outs stand apart in the source and are kept apart here.
Tests used:
[1] = test system: T cell lines and primary T cells; test: GCV sensitivity of T cell lines and primary T cells transduced with corrected or non-corrected HSV-Tk vectors; type: cell-based, human; conditions: inhibition of cell viability
From the text: FIG. 18. GCV sensitivity of T cell lines and primary T cells transduced with corrected or non-corrected HSV-Tk vectors. GCV sensitivity of Hut-78 (A) and CEM (B) cell line transduced with corrected SF/Tk/mut (?) or non-corrected vector G1Tk1SVNa (◯) or SF/Tk/wt (Δ) compared to untransduced T-cell lines (▪). The data represents the inhibition of cell viability and are the mean±SD of 8 and 3 different independent experiments, for CEM and Hut-78 cell lines respectively. (C) GCV sensitivity of primary T cells transduced with corrected sc-SFCMM3 (Δ) or non corrected SFCMM3 vectors (?) compared to untransduced T cells (▪).
Primary T cells and the T cell lines, HuT78 (ATCC TIB-161) and CEM (ATCC CRL 2265)] were transduced with G1Tk1SVNa, SF/Tk/wt, SF/Tk/mut, SFCMM3 or scSFCMM3 vectors. HSV-Tk PCR (as described in^7) was performed on transduced target cells. In addition, PCR was performed using primers which selectively amplified the deleted form of the HSV-Tk gene using a 5′ primer, which spans the truncation point [TrTk1: 5′CTCGACCAGG§GCCGTGCT. (§ denoting the junction) and the previously described RTk2 3′ primer^7. Splicing from the transduced cell lines was quantified as described.^7

TK-CEM sub-clones = test: Ganciclovir cytotoxic assay (3H-thymidine incorporation); type: cell-based, human; conditions: for IC50: Homo sapiens
Protocol: Cells were incubated for 4 days in the presence of increasing concentration of GCV (range from 0.05 to 12.5 μg/mL). Cell proliferation was measured by the incorporation of ^3H— thymidine into the cell DNA. Results are expressed as percentage of incorporated ^3H-thymidine at each GCV concentration respect to the incorporation obtained in the absence of GCV. (♦) non-transduced CEM cells and (▪) SFCMM 3 transduced TK-CEM sub-clones.
Ganciclovir Cytotoxic Assay
A total of 2×10^4 cells/well were seeded into a 96-well plate in 100 μL of medium. Cells were cultured for 4 days with increasing concentrations (from 0.05 to 12.5 μg/mL) of GCV (Cymevene®, Hoffman-La Roche A G, Germany). Afterwards, 1 μCi/well of tritiated thymidine (methyl ^3H-thymidine, TRA.120, 1.0 MBq/mL, Amersham International, England) was added 18 h. before harvesting the cell DNA in a cell harvester (Wallac, Gaitherburg, Md.). The incorporation of ^3H-thymidine into the DNA was measured in a β-scintillation counter (Wallac 1410, aitherburg, Md.). All GCV concentrations were tested in triplicate esults are expressed as percentage of incorporated ^3H-thymidine at each GCV concentration with respect to the incorporation obtained in the absence of GCV.
The expression of the HSV-TK transgene m the TK-CEM sub-clones was determined by the inhibition in cell proliferation when the cells were cultured at increasing concentrations of GCV.

primary T-cells = test: GCV sensitivity of G1Tk1SvNa transduced primary T-cells following G418 selection; type: cell-based, human; conditions: n=12
Protocol: Transduction of donor T-cells with the G1Tk1SvNa retroviral vector was as previously described (Robinet et al (1998) J. Hematother. 7, 205-215). PBMNC were cultured for 3 days with OKT3 (10 ng, Ortho) and rhIL-2 (500 U/mL, Chiron). Infection with retroviral supernatant for 24 hours was followed by G418 (800 μg/mL, Sigma) selection of transduced cells for 7 days. Dead cells were removed and the viable transduced product was cryopreserved for future use. The transduction of CEM cells with the G1Tk1SvNa vector involved identical infection conditions to those described for the SFCMM3 vector, followed by selection in G418 (800 μg/ml) for 7-14 days.
The transduction efficiency of primary T-cells with G1Tk1SvNa prior to G418 selection, as measured by quantitative PCR for Neo^R, was 8.3±1.4% (n=12). The GCV sensitivity of these cells following G418 selection was 87±1.2% (n=12). The relative cell growth of control and transduced cells from one representative transduction/selection experiment is shown in FIG. 16.

transduced donor cells = conditions: one patient with chronic GvHD; declined from 11.9%; cited from earlier work
[2] = test system: circulating transduced T-cells; test: Clinical study: transduced donor T-cells with T cell depleted bone marrow, GCV treatment of GvHD; type: in vivo, human
From the text: Escalating amounts of CD3^+ gene-modified cells were infused with T cell depleted bone marrow. Twelve patients with hematological malignancies received 2×10^5 (n=5), 6×10^5 (n=5) or 20×10^5 (n=2) transduced donor CD3^+ cells/kg with bone marrow from an HLA-identical sibling. Acute toxicity was not observed. […] Three patients developed acute GvHD grade≧II while 1 patient developed chronic GvHD (skin and salivary glands). […] In patients receiving GCV, blood samples for detection of gene-modified cells expressing the wild-type or truncated form of the HSV-Tk gene were harvested prior to GCV treatment and a regular two weeks intervals.

[3] = patients, GCV treatment for GvHD, quantitative PCR of the NeoR gene

Question: With Nc1nc(O)c2ncn(COC(CO)CO)c2n1 [GCV] as the molecule, how does the “GCV sensitivity of cells expressing the mutated HSV-Tk gene compared to populations transduced by wild-type gene” value [1] read?
Answer: The value was “only marginally increased”.

Question: And the IC50 (TK-CEM sub-clones; 96 h, TK-CEM clones #6 and #10, 4 days with GCV, read-out: concentration of GCV to achieve the 50% inhibition in cell proliferation)?
Answer: Its IC50 is 0.25 µg/mL (≈ 0.979 µM).

Question: And the IC50 (TK-CEM sub-clones; read-out: IC50 inhibition in cell proliferation assessed by the incorporation of 3H-thymidine)?
Answer: The IC50 was 0.1 µg/mL (≈ 0.392 µM).

Question: What about the “cell proliferation at increasing concentrations of GCV” value (TK-CEM sub-clones; TK-CEM clones #1, #2, #4, #5, #7 and #14) of the same molecule?
Answer: The value was “parallel to that obtained in the non-transduced cells”.

Question: And the “complete inhibition in cell proliferation” value (TK-CEM sub-clones; TK-CEM clones #6 and #10, GCV increased up to 12.5 μg/mL)?
Answer: Its value is “not completely achieved”.

Question: What about the GCV sensitivity (primary T-cells) of the same molecule?
Answer: Its GCV sensitivity is 87±1.2%.

Question: And the “proportion of transduced donor cells after administration of GCV” value (transduced donor cells)?
Answer: The value was 2.8%.

Question: What about the “change in circulating transduced T-cells” value ([2]; patients receiving ganciclovir) of the same molecule?
Answer: Its value is “significant rapid decrease”.

Question: What about the “reduction of absolute number of circulating transduced T-cells” value [2, 3] of the same molecule?
Answer: Its value is 76-99.5%.

Question: What about the “reduction of percentage of circulating transduced T-cells” value [2, 3] of the same molecule?
Answer: The value was 85-98%.

Question: And the “outcome of chronic GvHD” value ([2]; the patient with chronic GvHD (skin and salivary glands))?
Answer: The value was “Long-lasting CR”.

Question: What about the “outcome of acute GvHD” value ([2]; treatment with GCV alone, three patients had acute GvHD grade ≧II) of the same molecule?
Answer: The value was “complete remission (CR) in 2 patients”.

Reference: patent US20040166559A1, “Vectors for gene therapy” (priority 2001, published 2004)
